Experimental findings from ChEMBL document CHEMBL1129715, “Synthesis and biological evaluation of hybrid molecules containing the pyrroloquinoline nucleus and DNA-minor groove binders” (1996) are described below.

The structures appear in SMILES notation. Converted amounts (≈) assume the structure as drawn.

Common to all, as to type: functional
Experiment [1] concerns L1210/Adr. As to the kind of experiment: In vitro cytotoxicity against L1210/Adr cancer cell lines. The settings on record: Mus musculus, read-out: TD50 (the source's name).
The test system of experiment [2] is KB. As to the kind of experiment: In vitro cytotoxicity against KB cancer cell lines. The settings on record: Homo sapiens, read-out: TD50 (the source's name).
Experiment [3] deals with CHO. Kind of experiment: In vitro cytotoxicity against CHO cancer cell lines. The settings on record: Cricetulus griseus, read-out: TD50 (the source's name).
The test system of experiment [4] is MCF7. Kind of experiment: In vitro cytotoxicity against MCF-7 cancer cell lines. The settings on record: Homo sapiens, read-out: TD50 (the source's name).
For experiment [5], the system named is HCT-116. As to the kind of experiment: In vitro cytotoxicity against HCT116 cancer cell lines. The settings on record: Homo sapiens, read-out: TD50 (the source's name).
Experiment [6] has as its system L1210. Kind of experiment: In vitro cytotoxicity against L1210 cancer cell lines. The settings on record: Mus musculus, read-out: TD50 (the source's name).

For the compound `COc1cccc2c1C(=O)c1c(O)c3c(c(O)c1C2=O)C[C@@](O)(C(=O)CO)C[C@@H]3O[C@H]1C[C@H](N)[C@H](O)[C@H](C)O1` [DOXORUBICIN], the CC50 in experiment [1] worked out at 0.3 µg/mL (≈ 0.552 µM); in experiment [2] it was 0.02 µg/mL (≈ 0.0368 µM); in experiment [3], 0.05 µg/mL (≈ 0.092 µM); in experiment [4] it was 0.2 µg/mL (≈ 0.368 µM); in experiment [5], 0.17 µg/mL (≈ 0.313 µM); in experiment [6], 0.02 µg/mL (≈ 0.0368 µM).
On to `CCOC(=O)c1cc(NC(=O)c2cc(NC3=CC4=NCCc5cn(C)c(c54)C3=O)cn2COC)cn1COC`, for which the CC50 in experiment [1] was 3.3 µg/mL (≈ 6.17 µM); in experiment [2] it was 2.3 µg/mL (≈ 4.3 µM); in experiment [3] it was 4.2 µg/mL (≈ 7.86 µM); in experiment [4] it was 3.3 µg/mL (≈ 6.17 µM); in experiment [5] it was 1.7 µg/mL (≈ 3.18 µM); in experiment [6], 4.9 µg/mL (≈ 9.17 µM).
With `COCn1cc(NC2=CC3=NCCc4cn(C)c(c43)C2=O)cc1C(=O)NCCCN(C)C`, the CC50 in experiment [1] was found to be 2.5 µg/mL (≈ 5.7 µM); in experiment [2], 0.5 µg/mL (≈ 1.14 µM); in experiment [3], 49.2 µg/mL (≈ 112 µM); in experiment [4], 0.4 µg/mL (≈ 0.912 µM); in experiment [5] it was 5.8 µg/mL (≈ 13.2 µM); in experiment [6], 3.8 µg/mL (≈ 8.67 µM).
For `COCn1cc(NC(=O)c2cc(NC(=O)c3cc(NC4=CC5=NCCc6cn(C)c(c65)C4=O)cn3COC)cn2COC)cc1C(=O)NCCCN(C)C`, the CC50 in experiment [1] was 2.8 µg/mL (≈ 3.77 µM); in experiment [2] it was 0.4 µg/mL (≈ 0.538 µM); in experiment [3], 0.9 µg/mL (≈ 1.21 µM); in experiment [4], 0.2 µg/mL (≈ 0.269 µM); in experiment [5], 2.1 µg/mL (≈ 2.83 µM); in experiment [6], 3.3 µg/mL (≈ 4.44 µM).
With `CCOC(=O)c1cc(NC2=CC3=NCCc4cn(C)c(c43)C2=O)cn1COC`, the CC50 in experiment [1] is 1 µg/mL (≈ 2.61 µM); in experiment [2] it was 0.5 µg/mL (≈ 1.31 µM); in experiment [3] it was 0.7 µg/mL (≈ 1.83 µM); in experiment [4] it was 0.5 µg/mL (≈ 1.31 µM); in experiment [5], 0.4 µg/mL (≈ 1.05 µM); in experiment [6], 2 µg/mL (≈ 5.23 µM).
Take `CCOC(=O)c1cc(NC(=O)c2cc(NC(=O)c3cc(NC4=CC5=NCCc6cn(C)c(c65)C4=O)cn3COC)cn2COC)cn1COC`: the CC50 in experiment [1] was found to be 2.5 µg/mL (≈ 3.64 µM); in experiment [2], 1.4 µg/mL (≈ 2.04 µM); in experiment [3] it was 4.9 µg/mL (≈ 7.14 µM); in experiment [4], 4.7 µg/mL (≈ 6.84 µM); in experiment [5] it was 5.2 µg/mL (≈ 7.57 µM); in experiment [6], 1.3 µg/mL (≈ 1.89 µM).
Take `COCn1cc(NC(=O)c2cc(NC3=CC4=NCCc5cn(C)c(c54)C3=O)cn2COC)cc1C(=O)NCCCN(C)C`: the CC50 in experiment [1] worked out at 3.8 µg/mL (≈ 6.43 µM); in experiment [2], 1.9 µg/mL (≈ 3.22 µM); in experiment [3], 17.5 µg/mL (≈ 29.6 µM); in experiment [4], 0.5 µg/mL (≈ 0.846 µM); in experiment [5], 6.1 µg/mL (≈ 10.3 µM); in experiment [6], 8.2 µg/mL (≈ 13.9 µM).
